Columns and labels:
[1] = target: purified human autoBACE-2 (Homo sapiens (Human), UniProt Q9Y5Z0); assay: BACE-2 Assay (BACE-HTRF assay); format: biochemical; details: Ki calculated from IC50 using the Cheng-Prusoff equation; QSY7-EISEVNLDAEFC-Eu-amide substrate, pH 5.0; read-out: BACE2 Ki
Method: Inhibitor IC50s at purified human autoBACE-2 are determined in a time-resolved endpoint proteolysis assay that measures hydrolysis of the QSY7-EISEVNLDAEFC-Eu-amide FRET peptide substrate (BACE-HTRF assay). BACE-mediated hydrolysis of this peptide results in an increase in relative fluorescence (RFU) at 620 nm after excitation with 320 nm light Inhibitor compounds, prepared at 3× the desired final concentration in 1×BACE assay buffer (20 mM sodium acetate pH 5.0, 10% glycerol, 0.1% Brij-35) supplemented with 7.5% DMSO are pre-incubated with an equal volume of autoBACE-2 enzyme diluted in 1×BACE assay buffer (final enzyme concentration 1 nM) in black 384-well NUNC plates for 30 minutes at 30° C. […] Following laser excitation of sample wells at 320 nm, the fluorescence signal at 620 nm is collected for 400 ms following a 50 μs delay on a RUBYstar HTRF plate reader (BMG Labtechnologies). […] IC50, are determined by nonlinear regression analysis (sigmoidal dose response, variable slope) of percent inhibition data with minimum and maximum values set to 0 and 100 percent respectively. […] The Ki values are calculated from the IC50 using the Cheng-Prusoff equation.

[2] = target: soluble human BACE1 catalytic domain (Homo sapiens (Human), UniProt P56817); assay: BACE1 HTRF FRET Assay; format: biochemical; details: Ki calculated from IC50 using the Cheng-Prusoff equation; QSY7-APPswe-Eu substrate, pH 5.0
Excerpt: Na^+-Acetate pH 5.0; 1% Brij-35; Glycerol; Dimethyl Sulfoxide (DMSO); Recombinant human soluble BACE1 catalytic domain (>95% pure); APP Swedish mutant peptide substrate (QSY7-APP^swe-Eu): QSY7-EISEVNLDAEFC-Europium-amide.
A homogeneous time-resolved FRET assay can be used to determine IC50 values for inhibitors of the soluble human BACE1 catalytic domain. This assay monitors the increase of 620 nm fluorescence that resulted from BACE1 cleavage of an APPswedish APP^swe mutant peptide FRET substrate (QSY7-EISEVNLDAEFC-Europium-amide). This substrate contains an N-terminal QSY7 moiety that serves as a quencher of the C-terminal Europium fluorophore (620 nm Em). In the absence of enzyme activity, 620 nm fluorescence is low in the assay and increased linearly over 3 hours in the presence of uninhibited BACE1 enzyme Inhibition of BACE1 cleavage of the QSY7-APP^swe-Eu substrate by inhibitors is manifested as a suppression of 620 nm fluorescence.
Varying concentrations of inhibitors at 3× the final desired concentration in a volume of 10 ul are preincubated with purified human BACE1 catalytic domain (3 nM in 10 μl) for 30 minutes at 30° C. in reaction buffer containing 20 mM Na-Acetate pH 5.0, 10% glycerol, 0.1% Brij-35 and 7.5% DSMO. […]

Chain of purified human autoBACE-2 (Q9Y5Z0 63-473 limits assumed): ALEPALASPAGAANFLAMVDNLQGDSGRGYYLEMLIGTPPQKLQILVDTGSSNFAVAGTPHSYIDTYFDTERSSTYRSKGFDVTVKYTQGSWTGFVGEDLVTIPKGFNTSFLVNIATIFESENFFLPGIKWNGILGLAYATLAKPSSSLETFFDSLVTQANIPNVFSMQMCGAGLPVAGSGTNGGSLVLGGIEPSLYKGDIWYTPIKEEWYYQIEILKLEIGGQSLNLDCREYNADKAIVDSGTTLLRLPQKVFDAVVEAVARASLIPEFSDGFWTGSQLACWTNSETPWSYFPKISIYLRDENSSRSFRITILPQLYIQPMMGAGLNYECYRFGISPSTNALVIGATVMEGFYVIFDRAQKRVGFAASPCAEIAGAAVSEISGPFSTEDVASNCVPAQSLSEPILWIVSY
Chain of soluble human BACE1 catalytic domain (P56817 75-416): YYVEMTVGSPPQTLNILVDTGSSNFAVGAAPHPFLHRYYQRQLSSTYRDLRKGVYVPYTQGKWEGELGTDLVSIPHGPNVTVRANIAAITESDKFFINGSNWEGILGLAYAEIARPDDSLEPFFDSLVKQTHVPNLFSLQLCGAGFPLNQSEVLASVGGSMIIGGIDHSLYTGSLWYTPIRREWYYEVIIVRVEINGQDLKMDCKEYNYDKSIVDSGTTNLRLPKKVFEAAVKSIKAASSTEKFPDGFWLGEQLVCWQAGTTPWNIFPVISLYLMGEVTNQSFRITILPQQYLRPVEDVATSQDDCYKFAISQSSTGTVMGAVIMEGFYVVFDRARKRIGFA

Compound | Ki [1] [nM] | Ki [2] [nM]
CCN=S1(=O)C[C@@](C)(c2cc(NC(=O)c3ccc(Cl)cn3)ccc2F)NC(=N)N1C (stereo partly shown) [Example 5] | 3 | 8
CCN1C(=N)N[C@](C)(c2cc(NC(=O)c3ccc(Cl)cn3)ccc2F)CS1(=O)=NC (stereo partly shown) [Example 6] | 3 | 10

Source: patent publication US9428476B2, “S-imino-S-oxo-iminothiadiazine compounds as BACE inhibitors, compositions, and their use” (Merck Sharp & Dohme Corp., priority 2013, dated 2016)
